Read-outs that look alike come from different tables or passages of the source.
Legend:
[1] = system: HDAC6 (Ac‐α‐tubulin, Ac‐H3 readout); assay: Western blot of HDAC6, Ac-H3 and Ac-α-tubulin in cells; assay type: cell-based
Method: (§1) Following the indicated treatment, cells were collected and lysed using the recommended amount of radio immunoprecipitation assay (RIPA) buffer from KMT Bio, China, according to the provided instructions. The protein concentration in the lysate was determined using a bicinchoninic acid (BCA)-based protein quantification kit from KMT Bio, China. Subsequently, the samples were denatured in the presence of a 6× loading buffer from KMT Bio, China. Equal amounts of denatured protein samples were subjected to sodium dodecyl sulfate-polyacrylamide gel electrophoresis (SDS-PAGE), and the target protein was then transferred to a nitrocellulose membrane using the wet transfer method with Pall, USA membranes. The membrane was incubated with 5% non-fat milk at 37°C for 1 hour to block non-specific binding, followed by an overnight incubation at 4°C with the recommended concentration of the primary antibody. Afterward, the membranes were washed three times with PBST (PBS buffer with 0.1% Tween-20) for 10 minutes each. The secondary antibody was then appropriately diluted and incubated with the membrane at room temperature for 1 hour. Finally, the membranes were washed three more times with PBST for 10 minutes each, and the protein bands were visualized using an ECL chemiluminescence detection kit from ThermoFisher, USA.

MGC‐803 cells [2] = assay: Cytotoxicity against MGC-803 cells; assay type: cell-based; details: Homo sapiens, 72 h
MGC‐803 cells [3] = assay: PD-L1 expression in MGC-803 cells; assay type: cell-based; details: compared to vehicle control
HDAC1 = HDAC1 (Homo sapiens, UniProt Q13547); assay: HDAC1 enzyme activity assay; assay type: biochemical; details: HDAC1 compared to HDAC6
Chain of HDAC1 (Q13547 whole entry, species assumed): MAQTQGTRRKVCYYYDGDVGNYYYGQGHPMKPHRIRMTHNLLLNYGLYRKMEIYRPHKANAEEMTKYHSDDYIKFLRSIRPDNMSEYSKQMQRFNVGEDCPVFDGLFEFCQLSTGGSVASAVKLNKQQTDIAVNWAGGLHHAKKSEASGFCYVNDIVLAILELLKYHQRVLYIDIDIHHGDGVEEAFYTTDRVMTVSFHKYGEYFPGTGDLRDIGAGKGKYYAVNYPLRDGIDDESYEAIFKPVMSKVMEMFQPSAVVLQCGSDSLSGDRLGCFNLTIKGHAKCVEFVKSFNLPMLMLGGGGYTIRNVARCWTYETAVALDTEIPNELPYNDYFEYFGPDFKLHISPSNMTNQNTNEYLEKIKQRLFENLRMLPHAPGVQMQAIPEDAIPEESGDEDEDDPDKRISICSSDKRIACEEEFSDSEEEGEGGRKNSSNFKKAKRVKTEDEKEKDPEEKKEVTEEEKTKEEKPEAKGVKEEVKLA

gastric cancer cells = assay: Apoptosis, mitochondrial membrane potential and apoptosis protein expression in gastric cancer cells; assay type: cell-based
Method: as §1

HDAC6 [4] = target: T1, HDAC6 (Homo sapiens, UniProt Q9UBN7); assay: CETSA of HDAC6 at the cellular level; assay type: cell-based
T1 sequence (Q9UBN7 1-1215): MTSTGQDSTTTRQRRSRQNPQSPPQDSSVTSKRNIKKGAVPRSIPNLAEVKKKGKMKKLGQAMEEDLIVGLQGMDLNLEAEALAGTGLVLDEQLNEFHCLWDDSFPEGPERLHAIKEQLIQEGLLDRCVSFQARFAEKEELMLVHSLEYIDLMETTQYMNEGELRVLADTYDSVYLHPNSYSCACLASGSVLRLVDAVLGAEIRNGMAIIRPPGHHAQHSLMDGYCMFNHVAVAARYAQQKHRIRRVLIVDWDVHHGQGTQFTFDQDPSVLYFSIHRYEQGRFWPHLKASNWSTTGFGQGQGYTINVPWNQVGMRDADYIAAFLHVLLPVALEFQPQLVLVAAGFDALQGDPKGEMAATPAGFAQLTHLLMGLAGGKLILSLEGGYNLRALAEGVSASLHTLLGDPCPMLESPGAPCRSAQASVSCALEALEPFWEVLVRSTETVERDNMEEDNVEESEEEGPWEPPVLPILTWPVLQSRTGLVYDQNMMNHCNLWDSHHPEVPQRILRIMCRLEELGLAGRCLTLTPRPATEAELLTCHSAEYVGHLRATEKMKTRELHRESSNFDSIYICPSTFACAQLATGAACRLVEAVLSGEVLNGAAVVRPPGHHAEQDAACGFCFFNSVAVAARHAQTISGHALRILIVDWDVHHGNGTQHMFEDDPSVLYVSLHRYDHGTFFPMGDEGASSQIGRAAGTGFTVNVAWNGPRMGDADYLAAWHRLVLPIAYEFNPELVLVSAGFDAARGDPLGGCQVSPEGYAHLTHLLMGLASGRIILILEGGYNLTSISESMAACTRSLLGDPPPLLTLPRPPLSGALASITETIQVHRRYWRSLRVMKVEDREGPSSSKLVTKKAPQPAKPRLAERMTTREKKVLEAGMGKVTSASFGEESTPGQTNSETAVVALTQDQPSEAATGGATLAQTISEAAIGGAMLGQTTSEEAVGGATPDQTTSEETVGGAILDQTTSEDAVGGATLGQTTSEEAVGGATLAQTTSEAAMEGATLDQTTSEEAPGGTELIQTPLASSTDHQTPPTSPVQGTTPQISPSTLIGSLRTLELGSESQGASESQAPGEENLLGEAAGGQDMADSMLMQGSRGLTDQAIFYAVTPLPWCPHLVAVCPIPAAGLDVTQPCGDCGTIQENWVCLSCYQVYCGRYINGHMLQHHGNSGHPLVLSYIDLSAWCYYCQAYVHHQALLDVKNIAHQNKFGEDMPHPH

HDAC8 = target: T2, HDAC8 (Homo sapiens, UniProt Q9BY41); assay: HDAC8 enzyme activity assay; assay type: biochemical; details: HDAC8 compared to HDAC6
T2 sequence (Q9BY41 1-377): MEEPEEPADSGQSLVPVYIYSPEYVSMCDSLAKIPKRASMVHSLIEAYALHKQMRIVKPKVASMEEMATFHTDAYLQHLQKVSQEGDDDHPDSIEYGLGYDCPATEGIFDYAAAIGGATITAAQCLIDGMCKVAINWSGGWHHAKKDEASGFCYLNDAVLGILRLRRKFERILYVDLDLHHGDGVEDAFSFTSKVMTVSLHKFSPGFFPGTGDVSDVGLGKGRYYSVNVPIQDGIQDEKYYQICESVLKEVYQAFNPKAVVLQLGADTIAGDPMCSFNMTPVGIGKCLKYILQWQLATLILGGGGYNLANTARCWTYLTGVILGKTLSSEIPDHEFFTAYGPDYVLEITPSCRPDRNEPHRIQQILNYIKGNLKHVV
Method: (§2) The HDAC6 substrate Ac-Lys-AMC (Chinapeptides, China), human recombinant protein HDAC6 (100 ng/mL) (BPS bioscience, USA), and the test compounds were incubated together at 37°C in an assay buffer. The assay buffer consisted of 25 mM HEPES (pH 7.5), 100 mM NaCl, 2.5 mM KCl, 0.005% Tween-20, 1 mM MgCl2, and 0.1 mg/mL bovine serum albumin. After incubation for 1 hour, trypsin was added to release the fluorescent fragment.

HDAC6 [5] = target: T1, HDAC6; assay: BLI binding assay; details: biotinylated HDAC6 on streptavidin biosensors
Method: BLI experiments were conducted using an Octet Red 96 instrument (ForteBio). Streptavidin-coated biosensors (SA, ForteBio) were utilized, and biotinylated HDAC6 protein (50 μg/mL) was immobilized on the biosensor surface. The immobilization levels typically exceeded 0.3 nm. Ligand-loaded SA biosensors were then exposed to various concentrations of compound 10n. The dissociation constants for the interactions between HDAC6 and compound 10n were determined by plotting the increase in BLI response as a function of […].

HDAC2 = HDAC2 (Homo sapiens, UniProt Q92769); assay: HDAC2 enzyme activity assay; assay type: biochemical; details: HDAC2 compared to HDAC6
Chain of HDAC2 (Q92769 whole entry, species assumed): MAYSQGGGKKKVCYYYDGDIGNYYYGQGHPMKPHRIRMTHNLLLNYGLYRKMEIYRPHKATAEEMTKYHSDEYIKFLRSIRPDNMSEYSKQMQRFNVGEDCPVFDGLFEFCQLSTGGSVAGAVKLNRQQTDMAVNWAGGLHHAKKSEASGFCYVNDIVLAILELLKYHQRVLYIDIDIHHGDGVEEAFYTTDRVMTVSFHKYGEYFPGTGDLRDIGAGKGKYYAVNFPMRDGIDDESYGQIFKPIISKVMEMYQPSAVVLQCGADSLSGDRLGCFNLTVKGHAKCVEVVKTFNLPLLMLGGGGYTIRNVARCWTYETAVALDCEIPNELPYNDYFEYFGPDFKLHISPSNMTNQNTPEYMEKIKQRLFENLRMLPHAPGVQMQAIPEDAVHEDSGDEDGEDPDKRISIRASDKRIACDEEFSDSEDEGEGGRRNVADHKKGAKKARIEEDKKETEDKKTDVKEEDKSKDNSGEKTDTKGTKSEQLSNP

[6] = Pharmacokinetic study in mice; assay type: in vivo; details: male, ICR, mouse, plasma
Method: Six male ICR mice were divided into two groups, receiving compound 10n via intravenous and oral administration, respectively. The intravenous injection group had blood samples collected at 5 min, 15 min, 30 min, 1 h, 2 h, 4 h, 6 h, 8 h, and 24 h post-administration; the oral group had blood samples collected at the same time points. Approximately 0.05 mL of blood was collected for each sample. The concentration of compound 10n in mouse plasma samples was determined using LC-MS/MS method and pharmacokinetic parameters were calculated using WinNolin software.

MKN‐45 cells = assay: Cytotoxicity against MKN-45 cells; assay type: cell-based; details: Homo sapiens, 72 h
HDAC3 = HDAC3 (Homo sapiens, UniProt O15379); assay: HDAC3 enzyme activity assay; assay type: biochemical; details: HDAC3 compared to HDAC6
Chain of HDAC3 (O15379 whole entry, species assumed): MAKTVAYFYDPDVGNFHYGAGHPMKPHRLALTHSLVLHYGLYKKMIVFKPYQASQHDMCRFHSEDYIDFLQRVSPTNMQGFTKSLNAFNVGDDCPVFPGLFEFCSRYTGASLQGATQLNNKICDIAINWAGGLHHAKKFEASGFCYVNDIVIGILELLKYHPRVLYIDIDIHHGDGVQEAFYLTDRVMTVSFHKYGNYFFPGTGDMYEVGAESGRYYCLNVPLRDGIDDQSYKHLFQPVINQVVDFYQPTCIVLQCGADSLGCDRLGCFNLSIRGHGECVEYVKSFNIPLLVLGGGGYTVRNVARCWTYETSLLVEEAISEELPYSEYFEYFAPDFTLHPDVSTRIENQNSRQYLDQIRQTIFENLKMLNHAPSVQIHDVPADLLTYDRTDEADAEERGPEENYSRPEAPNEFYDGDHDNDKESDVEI
Chain of HDAC3 (Q9Y618 395-489 partner limits assumed, species assumed): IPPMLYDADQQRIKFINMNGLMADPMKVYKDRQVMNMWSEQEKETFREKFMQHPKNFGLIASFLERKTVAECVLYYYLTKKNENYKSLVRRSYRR

MFC cells = assay type: in vivo, mice; details: for tumor growth inhibition rate (TGI): MFC tumor, 615 mice, 14 days
Method: Six-week-old 615 mice (male) were procured from SJA laboratory animals in Hunan, China, and acclimated to a pathogen-free environment for one week before the commencement of the experiment. Subsequently, 5 × 10^5 of gastric cancer cell MFC were subcutaneously administered into the right flank of the mice. Tumor volume was determined using the formula length × width^2/2. […] Following 14 days, the mice were euthanized, and their tumors and vital organs were dissected for analysis. Paraffin sections measuring 4 µm in thickness were subjected to deparaffinization and subsequently treated with 3% hydrogen peroxide to inhibit endogenous peroxidase activity. Following this, slides were prepared to prevent nonspecific antibody binding and were then exposed to primary antibodies targeting HDAC6, Ac-tubulin, Ki-67, and Tunnel. The mice involved in the study were maintained in specific pathogen-free environments, and the experimental procedures were approved by the Ethics Committee of the Zhengzhou University Health Science Centre. The animal experimentation ethics number is ZZU-URIB-2024-O-109. All experimental animals adhered to the ARRIVE guidelines and were strictly in accordance with the National Research Council Guidelines for the Care and Use of Laboratory Animals.

HDAC6 [7] = target: T1, HDAC6; assay: HDAC6 enzymatic assay (Ac-Lys-AMC substrate, fluorescence); assay type: biochemical; set-up: purchased BPS bioscience, USA; details: enzyme activity assay
Method: as §2

For `O=C(NO)c1ccc(CNC(=O)c2cn(CC3CC3)c3ccccc23)cc1` [Compound 10n], the “acetylated H3 levels and HDAC6” value [1] was “no impact”, the “acetylated α-tubulin levels” value [1] was “dose‐dependent increase” and the IC50 (MGC‐803 cells [2]) was 1070 ± 312 nM. The PD-L1 expression (MGC‐803 cells [3]) was “dose‐dependent reduction”, the “selectivity ratio HDAC1/6” value (HDAC1) was 133.7 fold and the “mitochondrial membrane potential ratios” value (gastric cancer cells) was “increase”. For the same compound, the “proportion of apoptotic cells” value (gastric cancer cells) was “dose‐dependent increase”, the “HDAC6 thermal stabilization (CETSA)” value (HDAC6 [4]) was “notably stabilized HDAC6” and the “selectivity ratio HDAC8/6” value (HDAC8) was 622.22 fold. The Kd (HDAC6 [5]) was 330 ± 180 nM, the “selectivity ratio HDAC2/6” value (HDAC2) was 27.8 fold and the AUC ([6]; iv) was 350 ± 51.9 ng·h/mL. The half-life ([6]; iv) was 1.61 ± 0.34 h, the AUC ([6]; po) was 730 ± 140 ng·h/mL and the bioavailability ([6]; po) was 41.8 ± 0.08%. For the same compound, the half-life ([6]; po) was 2 ± 0.44 h, the IC50 (MKN‐45 cells) was 2700 ± 935 nM and the “selectivity ratio HDAC3/6” value (HDAC3) was 82.8 fold. For the same compound, the “tumor growth inhibition rate (TGI)” value (MFC cells; oral 10 mg/kg once daily) was 55.3%, the “tumor growth inhibition rate (TGI)” value (MFC cells; oral 20 mg/kg once daily) was 80.6% and the “toxicity in treated mice (body weight, organs)” value (MFC cells; MFC tumor-bearing mice, 10 or 20 mg/kg oral) was “no apparent toxicity”. The “HDAC6 protein expression in treated animals” value (MFC cells; tumor tissue) was “no changes”, the “Ki-67 expression in mice” value (MFC cells; tumor tissue) was “decreased” and the “levels of Ac-α-tubulin in treated animals” value (MFC cells; tumor tissue, immunohistochemistry) was “markedly elevated”. For the same compound, the “percentages of CD3+CD8+ cells in tumors” value (MFC cells; two treatment groups versus control) was “higher than the control” and the IC50 (HDAC6 [7]) was 3.11 nM.

From PMC11923385, “Rational Design, Synthesis, and Biological Assessment of Potential Indole‐Capped HDAC6 Inhibitors for Gastric Cancer Suppression” (MedComm, 2025)
